Assay results reported in patent US20120258938A1, “Enzymatic Production or Chemical Synthesis and Uses for 5,7-Dienes and UVB Conversion Products Thereof” (priority 2008, published 2012).

What was measured:
[1] = test system: AbC1 hamster melanoma cells; assay: Proliferation (DNA synthesis) of AbC1; assay type: cell-based; conditions: AbC1, 72 h
Protocol: To measure DNA synthesis, keratinocytes, melanoma or prostate cancer cells were plated in 96-well plates. After overnight incubation tested compounds were added to the medium to achieve final concentrations 10^−7-10^−10 [M]. 100 μl of medium per well containing vitamin D3 compound was added to the cells. After 36 hours of incubation [3H]-thymidine (specific activity 88.0 Ci/mmol; Amersham Biosciences, Picataway, N.Y., USA) was added at 1 μCi/mL medium. After 12 hours, media were discarded, cells detached with trypsin and harvested on a glass fiber filter (Packard, Meriden, Calif., USA). 3H-radioactivity was measured with a beta counter (Direct Beta-Counter Matrix 9600; Packard).
HaCaT keratinocytes were an incubated for 48 h (FIG. 48A) or 72 h (FIG. 48B) in the presence of graded concentrations of 20(OH)D2 and/or 1,25(OH)2D3. […] Data are shown as mean±SD (n 3); *, p<0.05; **, p<0.01.

[2] = test system: neonatal epidermal melanocytes; assay: Proliferation of neonatal epidermal melanocytes; assay type: cell-based; conditions: 48 hours
[3] = test system: cytokeratin 14; assay: Real-time RT PCR cytokeratin 14 mRNA, normal epidermal keratinocytes; assay type: cell-based, human; conditions: 10^−10 M
Protocol: RNA was extracted using an Absolutely RNA RT-PCR Miniprep Kit (Stratagene, La Jolla, Calif.). Real time PCR and reverse transcription products were purchased from Applied Biosystems, Foster City, Calif. Reverse transcription was performed using Taqman® Reverse Transcription Reagents. The following PCR products were used: cytokeratin 14: Hs00265033_m1, involucrin: Hs00846307_s1, CYP27A1: Hs00168003_ml, CYP27B1: Hs00168017_ml, 18SrRNA: Hs99999901_s1. The reaction was performed with Taqman® Universal PCR Master Mix; data were collected on an ABI Prism 7700 and analyzed on Sequence Detector 1.9.1. Specific gene amounts were related to 18SrRNA by comparative CT method.

[4] = test system: collagen-induced arthritis (CIA) in DBA/1 Lac J mice; assay: Type II collagen-induced arthritis (CIA) model; assay type: in vivo, mouse; conditions: i.p. every day at 2.5 μg/kg from day 14 post CII immunization
Description: The CIA model in DBA/1 Lac J mice has been widely studied as a model with some features of human RA, and has served as a reliable model to study various mediators and therapies of autoimmune arthritis. The immunization of DBA/1 Lac J mice with native bovine CII in complete Freund's adjuvant (CFA) is followed 10-14 days later by the onset of arthritis in the distal extremities. […] The arthritis is characterized by acute, subacute and chronic inflammation that correlates with histologic changes in distal extremity joints that progressively worsens during the subsequent 10 to 40 day period. The arthritis is dependent on the generation of inflammatory mediators from activation of the complement cascade by anti-CII antibodies, the infiltration of neutrophils, monocytes and T cells into the joint resulting in liberation of inflammatory cytokines and various proteases (42).
Twenty-four DBA/1 Lac J female mice 6 wks old were immunized with bovine CII in CFA. […] Arthritis severity was assessed every 3-4 days by two observers and each paw was given a score of 0=no swelling; 1=slight swelling and redness; 2=moderate swelling and redness; 3=marked swelling and redness; and 4=marked swelling and redness with deformity. […]

[5] = test system: human prostate carcinoma cell line PC-3; assay: Proliferation of PC-3 prostate carcinoma cells; assay type: cell-based; conditions: PC-3, 72 h
Protocol: Cells were seeded in 96-well plate and incubated with 20-hydroxycholecalciferol in DMEM medium containing 5% FBS for 48 h (FIG. 25A) or 72 h (FIG. 25C) or for 24 h after a 12 h synchronization in serum free medium (FIG. 25D). […] was added for a final 18 h (FIGS. 25A, 25D) or 12 h (FIG. 25C) of incubation or cells were assessed with sulforhodamine assay (FIG. 25C). Data is shown as mean±SEM (n=5; FIG. 24C) or mean±SEM (n=6; FIGS. 24A, 24C, 24D) and was analyzed using GraphPrism 4.0.

[6] = test system: K562 human chronic myeloid leukemia cells; assay: Erythroid differentiation of K562 cells; assay type: cell-based; conditions: 10^-7 M, 7 days
Protocol: K562 human chronic myeloid leukemia (erythroleukemia) and MEL mouse erytholeukemia cells were cultured in RPMI 1640 containing 10% FBS and treated with the drugs at concentrations 0.1 μM. A 0.1% ethanol (EtOH) or 2% DMSO were used as negative or positive control, respectively to estimate the vehicle effect and the ability of the cells to differentiate. Media were exchanged every 72 h and drugs added every day. Growth of cultures was estimated by counting number of viable cells (trypan blue negative cells) as described previously.
To estimate erythroid differentiation (production of hemoglobin), first the number of benzidine positive cells was evaluated after 2 and 7 days in culture. Cells were centrifuged and washed four times with PBS and resuspended in 1 mL of fresh PBS. For hemoglobin determination, a benzidine staining solution was freshly prepared by mixing one part of 30% hydrogen peroxide, one part of base stock solution of 3% benzidine in 90% acetic acid, and 5 parts of water. The solution was diluted 1:10 with the cell suspension and aliquoted in 4 wells in 24-well plate (250 μl each). After 10 min of incubation at RT benzidine-positive cells were counted under the microscope with a minimum of 200 cells scored.
Second, to define spectrophotometrically relative content of hemoglobin, equal number of cells (7×106) were washed with cold PBS and lysed for 20 min in 100 μL of lysis buffer (0.2% Triton X-100 in […] potassium phosphate buffer, pH 7.8). The lysates were centrifuged for 15 min at 1500 r.p.m. and 100 μL of the supernatant was incubated with 2 mL of benzidine solution (5 mg/mL in glacial acetic acid) and 2 ml 30% H2O2 for 10 min increases in comparison with the level of hemoglobin in mock-induced K562 or MEL cells.

C=C1/C(=C\C=C2/CCC[C@]3(C)[C@@H]([C@H](C)CCCC(C)(C)O)CC[C@@H]23)C[C@@H](O)C[C@@H]1O [1α,25-dihydroxycholecalciferol, (5Z,7E)-9,10-secocholesta-5,7,10(19)-triene-1α,3β,25-triol, reference compound]
proliferation [1]: Dose dependent inhibition of the proliferation | proliferation [2]: Dose dependent inhibition of the proliferation

C=C1CC[C@H](O)C/C1=C/C=C1\CCC[C@@]2(C)[C@H]1CC[C@@H]2[C@@](C)(O)CCCC(C)C [20(OH)D3, (5Z,7E)-9,10-secocholesta-5,7,10(19)-triene-3β,20-diol]
cytokeratin 14 mRNA expression ([3]; 1 h): 45 % of the control | cytokeratin 14 mRNA expression ([3]; 6 h): 62 % of the control | arthritis severity (CIA) [4]: suppresses CIA | EC50 [5]: 570 nM

C=C1CC[C@H](O)C/C1=C/C=C1\CCC[C@]2(C)[C@@H](C(C)=O)CC[C@@H]12 [pD3, (5Z,7E)-3β-hydroxy-9,10-secopregna-5,7,10(19)-trien-20-one]
differentiation of K562 cells [6]: induce differentiation
